According to patent publication US20050080090A1, “Naphthalene derivatives” (priority 1993, published 2005):
Where a name gives a salt, the structure may show the parent alone.

Row | melting point | SMILES
1 | 141.5 to 144 °C | O=C(Nc1ccc2cccc(N3CCNCC3)c2c1)c1ccccc1
2 | 159 to 160 °C | CN1CCN(c2cccc3ccc(NC(=O)C(F)(F)F)cc23)CC1
3 | 177 to 180 °C | CC(=O)Nc1ccc2cccc(N3CCN(C)CC3)c2c1
4 | 157 to 159 °C | CN1CCN(c2cccc3ccc(N)cc23)CC1
5 | 153 to 154 °C | CN1CCN(c2cccc3ccc(Nc4ccc([N+](=O)[O-])cc4[N+](=O)[O-])cc23)CC1
6 | 169.5 to 171 °C | CN1CCC(c2cccc3ccc(N)cc23)CC1
7 | 117 to 120 °C | CN1CCCC(c2cccc3ccc(N)cc23)C1 (stereo not drawn)
8 | 254 to 256 °C | CN1CCN(c2cccc3ccc(NC(=O)c4cc([N+](=O)[O-])cc([N+](=O)[O-])c4)cc23)CC1
9 | 223.5 to 224 °C | Cl.O=CNc1ccc2cccc(C[C@H]3CCCN3)c2c1
10 | 184 to 186 °C | Nc1ccc2cccc(N3CCNCC3)c2c1
11 | > 250 °C | CN1CCCC(c2cccc3ccc(-n4cnc5ncccc54)cc23)C1 (stereo not drawn) (as salt: HCl) [Example 63, 7-(Imidazolo[4,5-b]pyridin-1-yl)-1-(1-methyl-3-piperidinyl)-naphthalene]
12 | 140 to 170 °C | CN1CCCC(c2cccc3ccc(NC(=O)c4ccccc4)cc23)C1 (stereo not drawn) (as salt: HCl) [Example 64, 7-Benzamido-1-(1-methyl-3-piperidinyl)-naphthalene]
13 | 230 to 231.5 °C | O=C(Nc1ccc2cccc(C[C@H]3CCCN3)c2c1)c1ccc(Cl)cc1 (as salt: HCl) [Example 71, 7-(4-Chlorobenzamido)-1-(pyrrolidin-2-(R)-ylmethyl)-naphthalene]
14 | > 250 °C | c1cc(N2CCNCC2)c2cc(-n3cnc4ncccc43)ccc2c1 (as salt: hydrochloride)
15 | > 250 °C | c1cc(N2CCNCC2)c2cc(-n3nnc4ncccc43)ccc2c1 (as salt: hydrochloride)
16 | 205 to 206 °C | CN1CCN(c2cccc3ccc(OCc4ccc(C(F)(F)F)cc4)cc23)CC1 (as salt: hydrochloride) [Example 51, 7-(4-Trifluoromethylbenzyloxy)-1-(4-methyl-1-piperazinyl)-naphthalene]
17 | 134 to 148 °C | COCCN1CCN(c2cccc3ccc(NC(=O)c4ccc(Cl)cc4)cc23)CC1 (as salt: hydrochloride) [Example 65, 7-(4-Chlorobenzamido)-1-(4-methoxyethyl-1-piperazinyl)-naphthalene]
18 | 236 to 238 °C | COc1cccc(-c2ccc3cccc(N4CCN(C)CC4)c3c2)c1 (as salt: hydrochloride) [Example 81, 7-(3-Methoxyphenyl)-1-(4-methylpiperazin-1-yl)naphthalene]
19 | 198 to 200 °C | CN1CCN(c2cccc3ccc(Nc4ncccc4N)cc23)CC1 (hydrate or solvate) [Example 29, 7-(3-Amino-2-pyridylamino)-1-(4-methyl-1-piperazinyl)-naphthalene]
20 | 173 to 175 °C | CN1CCN(c2cccc3ccc(NC(=O)c4ccccc4)cc23)CC1 [Example 1, 7-Benzamido-1-(4-methyl-1-piperazinyl)-naphthalene]
21 | 182 to 184 °C | CN1CCN(c2cccc3ccc(NC(=O)c4cccc([N+](=O)[O-])c4)cc23)CC1 [Example 4, 7-(3-Nitrobenzamido)-1-(4-methyl-1-piperazinyl)-naphthalene]
22 | 147 to 148 °C | CN1CCN(c2cccc3ccc(NC(=O)c4cccc(Cl)c4)cc23)CC1 [Example 6, 7-(3-Chlorobenzamido)-1-(4-methyl-1-piperazinyl)-naphthalene]
23 | 174 to 175 °C | CN1CCN(c2cccc3ccc(NC(=O)c4ccc(Cl)cc4)cc23)CC1 [Example 8, 7-(4-Chlorobenzamido)-1-(4-methyl-1-piperazinyl)-naphthalene]
24 | 220 to 222 °C | CN1CCN(c2cccc3ccc(NC(=O)c4cccc(C#N)c4)cc23)CC1 [Example 9, 7-(3-Cyanobenzamido)-1-(4-methyl-1-piperazinyl)-naphthalene]
